In brackets after ≈: the same amount, converted by molar mass.
Legend:
[1] = target: Motilin receptor (Oryctolagus cuniculus) (UniProt A5A4K8); experiment: Agonist activity at motilin receptor in rabbit smooth muscle assessed as tachyphylaxis at EC90 concentration after 4th dose; type: functional
Motilin receptor = Motilin receptor (Oryctolagus cuniculus, UniProt A5A4K8); experiment: Agonist activity at motilin receptor in rabbit smooth muscle assessed as maximal possible tissue contraction; type: functional
Streptococcus pneumoniae = experiment: Antimicrobial activity against erythromycin-sensitive Streptococcus pneumoniae ATCC 6301; type: functional
hERG (KCNH2) [2] = target: T1, hERG (KCNH2) (Homo sapiens, UniProt Q12809); experiment: Inhibition of human ERG at 30 uM
hERG (KCNH2) [3] = target: T1, hERG (KCNH2); experiment: Inhibition of human ERG at 300 uM
[4] = target: Voltage-gated inwardly rectifying potassium channel KCNH2 (Homo sapiens, UniProt Q12809); experiment: Inhibition of human ERG
Chain of Voltage-gated inwardly rectifying potassium channel KCNH2 (Q12809 whole entry): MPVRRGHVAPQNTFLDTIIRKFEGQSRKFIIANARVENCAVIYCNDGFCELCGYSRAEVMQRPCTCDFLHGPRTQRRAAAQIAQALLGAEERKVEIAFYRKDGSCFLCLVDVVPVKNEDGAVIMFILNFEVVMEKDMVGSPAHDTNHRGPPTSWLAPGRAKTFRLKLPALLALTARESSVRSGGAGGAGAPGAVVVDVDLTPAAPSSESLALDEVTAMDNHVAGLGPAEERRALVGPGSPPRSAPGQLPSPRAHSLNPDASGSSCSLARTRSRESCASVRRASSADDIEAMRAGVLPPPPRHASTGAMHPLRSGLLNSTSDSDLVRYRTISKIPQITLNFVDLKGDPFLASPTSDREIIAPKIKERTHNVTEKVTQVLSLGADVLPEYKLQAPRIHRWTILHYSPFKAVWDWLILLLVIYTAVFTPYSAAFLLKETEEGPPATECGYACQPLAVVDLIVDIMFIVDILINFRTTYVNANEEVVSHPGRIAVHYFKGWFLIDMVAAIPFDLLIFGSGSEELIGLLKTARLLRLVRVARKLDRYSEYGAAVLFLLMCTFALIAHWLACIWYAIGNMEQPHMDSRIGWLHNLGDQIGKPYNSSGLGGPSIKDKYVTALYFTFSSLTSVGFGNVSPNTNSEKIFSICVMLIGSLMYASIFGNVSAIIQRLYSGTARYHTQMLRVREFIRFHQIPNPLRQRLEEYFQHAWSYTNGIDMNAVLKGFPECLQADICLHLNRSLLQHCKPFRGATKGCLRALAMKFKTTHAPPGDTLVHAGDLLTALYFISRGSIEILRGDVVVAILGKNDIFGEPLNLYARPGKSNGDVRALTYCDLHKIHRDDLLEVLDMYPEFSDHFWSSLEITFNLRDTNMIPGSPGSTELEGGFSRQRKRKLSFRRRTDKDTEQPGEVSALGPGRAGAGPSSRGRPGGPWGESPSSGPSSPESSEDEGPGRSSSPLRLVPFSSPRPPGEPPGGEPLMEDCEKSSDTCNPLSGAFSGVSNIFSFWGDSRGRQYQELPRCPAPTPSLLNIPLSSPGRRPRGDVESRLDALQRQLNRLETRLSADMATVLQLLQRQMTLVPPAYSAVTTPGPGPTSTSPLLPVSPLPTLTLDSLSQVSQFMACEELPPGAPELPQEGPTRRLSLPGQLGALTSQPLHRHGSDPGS

T1 sequence (Q12809 whole entry): as above
Chain of Motilin receptor (A5A4K8 whole entry): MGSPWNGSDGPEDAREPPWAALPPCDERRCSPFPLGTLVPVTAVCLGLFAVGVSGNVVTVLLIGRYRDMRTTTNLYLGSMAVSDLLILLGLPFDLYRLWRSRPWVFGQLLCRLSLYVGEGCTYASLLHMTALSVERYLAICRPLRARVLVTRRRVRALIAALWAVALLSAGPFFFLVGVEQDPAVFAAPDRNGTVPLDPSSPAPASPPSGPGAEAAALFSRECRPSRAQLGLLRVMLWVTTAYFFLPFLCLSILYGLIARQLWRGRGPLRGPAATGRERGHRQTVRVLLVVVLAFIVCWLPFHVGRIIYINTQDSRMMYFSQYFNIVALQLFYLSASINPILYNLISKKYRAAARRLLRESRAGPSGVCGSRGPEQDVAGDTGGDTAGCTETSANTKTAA
Chain of Motilin receptor (Oryctolagus cuniculus) (A5A4K8 as listed by the source): as the sequence (A5A4K8 whole entry) above

| Activity [1] | EC50 (Motilin receptor) | MIC (Streptococcus pneumoniae) | Compound | inhibition at 30 µM (hERG (KCNH2) [2]) | inhibition at 300 µM (hERG (KCNH2) [3]) | IC50 [4] |
| --- | --- | --- | --- | --- | --- | --- |
| 9% | – | – | CC[C@H]1OC(=O)[C@H](C)[C@@H](O[C@H]2C[C@@](C)(OC)CC(C)O2)[C@H](C)[C@@H](O[C@@H]2O[C@H](C)C[C@H](N(C)CC)[C@H]2O)C2(C)CC(C)=C(O2)[C@H](C)[C@@H](O)[C@H]1C (single isomer, unassigned) | – | – | – |
| 88% | 59 nM | 64 µg/mL (≈ 85.6 µM) | CC[C@H]1OC(=O)[C@H](C)[C@@H](O[C@H]2C[C@@](C)(OC)C[C@H](C)O2)[C@H](C)[C@@H](O[C@@H]2O[C@H](C)C[C@H](N(C)C(C)C)[C@H]2O)[C@](C)(O)C[C@@H](C)[C@H](O)[C@H](C)[C@@H](O)[C@]1(C)O | 74% | – | – |
| – | > 5000 nM | – | CC[C@H]1OC(=O)[C@H](C)[C@@H](O[C@H]2C[C@@](C)(OC)C[C@H](C)O2)[C@H](C)[C@@H](O[C@@H]2O[C@H](C)C[C@H](N(C)CC(=O)NC)[C@H]2O)[C@](C)(O)C[C@@H](C)[C@H](O)[C@H](C)[C@@H](O)[C@]1(C)O | – | – | – |
| – | 210 nM | – | CC[C@H]1OC(=O)[C@H](C)[C@@H](O[C@H]2C[C@@](C)(OC)[C@@H](O)[C@H](C)O2)[C@H](C)[C@@H](O[C@@H]2O[C@H](C)C[C@H](N(C)CCO)[C@H]2O)[C@](C)(O)C[C@@H](C)[C@H](O)[C@H](C)[C@@H](O)[C@]1(C)O | – | – | – |
| 22% | – | – | CC[C@H]1OC(=O)[C@H](C)[C@@H](O[C@H]2C[C@@](C)(OC)[C@@H](O)[C@H](C)O2)[C@H](C)[C@@H](O[C@@H]2O[C@H](C)C[C@H](N(C)C(C)C)[C@H]2O)[C@]2(C)CC(C)=C(O2)[C@H](C)C(=O)[C@]1(C)OC | – | – | – |
| 94% | 63 nM | 2 µg/mL (≈ 2.67 µM) | CC[C@H]1OC(=O)[C@H](C)[C@@H](O[C@H]2C[C@@](C)(OC)C[C@H](C)O2)[C@H](C)[C@@H](O[C@@H]2O[C@H](C)C[C@H](N(C)CCO)[C@H]2O)[C@](C)(O)C[C@@H](C)[C@H](O)[C@H](C)[C@@H](O)[C@]1(C)O | 68% | – | – |
| – | 120 nM | > 128 µg/mL | CC[C@H]1OC(=O)[C@H](C)[C@@H](O[C@H]2C[C@@](C)(OC)C[C@H](C)O2)[C@H](C)[C@@H](O[C@@H]2O[C@H](C)C[C@H](N(C)C3CCC3)[C@H]2O)[C@](C)(O)C[C@@H](C)[C@H](O)[C@H](C)[C@@H](O)[C@]1(C)O | 92% | 100% | – |
| – | 24 nM | 128 µg/mL (≈ 165 µM) | CC[C@H]1OC(=O)[C@H](C)[C@@H](O[C@H]2C[C@@](C)(OC)C[C@H](C)O2)[C@H](C)[C@@H](O[C@@H]2O[C@H](C)C[C@H](N(C)CC(C)(C)O)[C@H]2O)[C@](C)(O)C[C@@H](C)[C@H](O)[C@H](C)[C@@H](O)[C@]1(C)O | 86% | 100% | – |
| – | 350 nM | – | CC[C@H]1OC(=O)[C@H](C)[C@@H](O[C@H]2C[C@@](C)(OC)[C@@H](O)[C@H](C)O2)[C@H](C)[C@@H](O[C@@H]2O[C@H](C)C[C@H](N(C)C3CCC3)[C@H]2O)[C@](C)(O)C[C@@H](C)[C@H](O)[C@H](C)[C@@H](O)[C@]1(C)O | – | – | – |
| – | – | – | CC[C@H]1OC(=O)[C@H](C)[C@@H](O[C@H]2C[C@@](C)(OC)[C@@H](O)[C@H](C)O2)[C@H](C)[C@@H](O[C@@H]2O[C@H](C)C[C@H](N(C)C(C)C)[C@H]2O)[C@](C)(O)C[C@@H](C)[C@H](OCC(=O)N(C)C)[C@H](C)[C@@H](O)[C@]1(C)O | – | 51% | – |
| – | – | – | CC[C@H]1OC(=O)[C@H](C)[C@@H](O[C@H]2C[C@@](C)(OC)[C@@H](O)[C@H](C)O2)[C@H](C)[C@@H](O[C@@H]2O[C@H](C)C[C@H](N(C)C(C)C)[C@H]2O)[C@](C)(O)C[C@@H](C)[C@H](OCC(N)=O)[C@H](C)[C@@H](O)[C@]1(C)O | – | 29% | – |
| – | 190 nM | 128 µg/mL (≈ 154 µM) | CC[C@H]1OC(=O)[C@H](C)[C@@H](O[C@H]2C[C@@](C)(OC)C[C@H](C)O2)[C@H](C)[C@@H](O[C@@H]2O[C@H](C)C[C@H](N(C)C(C)C)[C@H]2O)[C@](C)(O)C[C@@H](C)[C@H](OCC(=O)N(C)C)[C@H](C)[C@@H](O)[C@]1(C)O | 50% | 100% | – |
| – | 100 nM | – | CC[C@H]1OC(=O)[C@H](C)[C@@H](O[C@H]2C[C@@](C)(OC)[C@@H](O)[C@H](C)O2)[C@H](C)[C@@H](O[C@@H]2O[C@H](C)C[C@H](N(C)CC(C)(C)O)[C@H]2O)[C@](C)(O)C[C@@H](C)[C@H](O)[C@H](C)[C@@H](O)[C@]1(C)O | – | – | – |
| – | 17 nM | 128 µg/mL (≈ 156 µM) | CC[C@H]1OC(=O)[C@H](C)[C@@H](O[C@H]2C[C@@](C)(OC)C[C@H](C)O2)[C@H](C)[C@@H](O[C@@H]2O[C@H](C)C[C@H](N(C)C(C)C)[C@H]2O)[C@](C)(O)C[C@@H](C)[C@H](OCC(=O)NC)[C@H](C)[C@@H](O)[C@]1(C)O | 57% | 97% | 30000 nM |
| – | 140 nM | 128 µg/mL (≈ 168 µM) | CC[C@H]1OC(=O)[C@H](C)[C@@H](O[C@H]2C[C@@](C)(OC)C[C@H](C)O2)[C@H](C)[C@@H](O[C@@H]2O[C@H](C)C[C@H](N(C)C[C@H](C)O)[C@H]2O)[C@](C)(O)C[C@@H](C)[C@H](O)[C@H](C)[C@@H](O)[C@]1(C)O | 89% | 100% | – |
| – | 36 nM | > 128 µg/mL | CC[C@H]1OC(=O)[C@H](C)[C@@H](O[C@H]2C[C@@](C)(OC)C[C@H](C)O2)[C@H](C)[C@@H](O[C@@H]2O[C@H](C)C[C@H](N(C)C(C)C)[C@H]2O)[C@](C)(O)C[C@@H](C)[C@H](OCC(N)=O)[C@H](C)[C@@H](O)[C@]1(C)O | 28% | 86% | – |
| – | 360 nM | – | CC[C@H]1OC(=O)[C@H](C)[C@@H](O[C@H]2C[C@@](C)(OC)[C@@H](O)[C@H](C)O2)[C@H](C)[C@@H](O[C@@H]2O[C@H](C)C[C@H](N(C)C[C@H](C)O)[C@H]2O)[C@](C)(O)C[C@@H](C)[C@H](O)[C@H](C)[C@@H](O)[C@]1(C)O | – | – | – |
